US20230355674A1, “DONOR T-CELLS WITH KILL SWITCH” (CSL Behring LLC, priority 2020, published 2023)
“Also recorded” adds a separate entry of the source.

How the values were obtained:
[1] = 6-TG selection and 6-TG challenge of gRNA modified CEM cells (cell viability); format: cell-based; conditions: human, wild type (unmodified) CEM T cell leukemia cells; wild type CEM, 6-TG at 40 uM
Protocol: (§1) Cells confirmed to be transfected with the gRNA via the use of the tracr RNA (24 hours post electroporation) were purified using fluorescence activated cells sorting (FACS) prior to culture in 10 μM 6-TG for 1 week replenished with fresh 6-TG every 48-72 hours.
(§2) After 10 days in the presence of 10 uM 6-TG, replenished with fresh 6-TG every 48-72 hours, each cell line was challenged with increasing concentrations of 6-thioguanine (6-TG) and cell viability was compared to wild type (unmodified) CEM cells (see FIG. 40B).

CEM cells = assay: Negative selection with MTX or MPA, transduced or transfected CEM cells; format: cell-based; conditions: 1 μM or 10 μM of MPA, day 0 to day 14
Protocol: Transduced or transfected CEM cells (such as those from Example 1) were cultured with or without MTX from day 0 to day 14. The medium was refreshed every 3 to 4 days. GFP was analyzed on flow machine and InDel % was analyzed by T7E1 assay.

Jurkat cells [2] = assay: HPRT knockout Jurkat cells, resistance to 6-TG (luminescence, ATP detection); format: cell-based; conditions: 6-TG tested up to 10 uM, vs wild type
Protocol: (§3) Jurkat cells were electroporated with a ribonucleoprotein (RNP) complex containing guide RNA (gRNA; GS-4; designated IDT-4) together with the Cas9 and tracrRNA. Cells which were confirmed to be transfected with the gRNA via tracr RNA were purified using fluorescence activated cells sorting (FACS) and subsequently cultured for 72 hours. Increasing concentrations of 6-thioguanine (6-TG) were then administered to the transduced cultured cells to assess resistance. Wild type (unmodified) Jurkat cells were used as a control.
Luminescence (ATP detection) was used to assess cell viability.

HPRT protein [3] = assay: Western blot of HPRT protein in Jurkat cells; format: cell-based, human; conditions: vs unmodified (WT)
Protocol: as §3
Unmodified (WT) and IDT-4 modified Jurkat cells were also analyzed for HPRT protein using Western blot (see FIG. 25). […] Actin protein detection (bottom panel) was used as a protein loading control.

Jurkat cells [4] = assay: HPRT knockout Jurkat cells, MTX dose response; format: cell-based; conditions: MTX 0.00625 and 0.0125 μM, cultured for 5 days
Protocol: Jurkat cells (unmodified; WT) were cultured with increasing concentrations of methotrexate (MTX) to determine the MTX dosage window required to kill WT cells (see FIG. 28). A dose range of between 0.00625 and 0.025 μM MTX was selected for subsequent assessment of HPRT Knockout (IDT-4 modified) Jurkat cells.
Dose response of HPRT Knockout (IDT-4 modified) Jurkat cells to MTX was compared to unmodified Jurkat cells (WT) to determine sensitivity to MTX (see FIG. 29).

HPRT protein [5] = assay: Western blot of HPRT protein in gRNA modified CEM cells; format: cell-based, human
Protocol: (§4) CEM T cell leukemia cells were electroporated (1600V, 10 ms pulse width, 3 pulses by using the Neon Transfection system) with ribonucleoprotein (RNP) complexes containing guide RNA (see Example 21) designed in-house and obtained from Integrated DNA Technologies (IDT), together with Cas9 and tracrRNA. Cells confirmed to be transfected with the gRNA via the use of the tracr RNA (24 hours post electroporation) were purified using fluorescence activated cells sorting (FACS) prior to culture for a further 72 hours, followed by assessment of cell survival when challenged with increasing concentrations of 6-thioguanine (6-TG) compared to wild type (unmodified) CEM cells.
Unmodified and modified CEM cells were also used for isolation of protein and detection of the HPRT protein using Western blot (FIG. 39, top panel). […] Actin protein detection (FIG. 39, bottom panel) was used as a protein loading control.
CEM T cell leukemia cells were electroporated (1600V, 10 ms pulse width, 3 pulses by using the Neon Transfection system) with ribonucleoprotein (RNP) complexes containing guide RNA (gRNA; legend) designed in-house and obtained from Integrated DNA Technologies (IDT), together with Cas9 and tracrRNA. Cells confirmed to be transfected with the gRNA via the use of the tracr RNA (24 hours post electroporation) were purified using fluorescence activated cells sorting (FACS) prior to culture for 10 days in the presence of 10 uM 6-TG, replenished with fresh 6-TG every 48-72 hours.
Following the selection period, protein was extracted from each cell and used for western blot-based detection of the HPRT protein. Detection of beta-actin was used as a protein loading control (Actin Antibody (ACTBD11B7): sc-81178. Santa Cruz).

primary human T cells [6] = assay: MTX dose response in 6-TG selected primary human T cells; format: cell-based; conditions: primary human T cells after 12 days 1 μM 6-TG, MTX dose range 2 days, thymidine 16 μM
Protocol: Primary human T cells modified using guide RNAs targeting the HPRT1 gene and subsequently placed under selection pressure for 12 days with 1 μM 6-TG, with 6-TG replenished every 2 to 3 days, were subjected to a dose range of MTX in the presence of thymidine 16 μM for 2 days and assessed for cell viability.

HPRT1 gene [7] = assay: ICE scoring (indel, knockout score) of gRNA editing in primary T cells; format: cell-based; conditions: primary human T cells
From the text: (§5) Indel Percentage—The editing efficiency (percentage of the pool with non-wild type sequence) as determined by comparing the edited trace to the control trace. In the ICE algorithm, potential editing outcomes are proposed and fitted to the observed data using linear regression.
(§6) Knockout Score—Represents the proportion of cells that have either a frameshift or 21+bp indel. This score is a useful measure for those who are interested in understanding how many of the contributing indels are likely to result in a functional Knockout (KO) of the targeted gene.
FIG. 44 illustrates a method of modifying primary T-cells in accordance with one embodiment of the present disclosure. FIGS. 45A-45C illustrate 6-TG dose responses seven days following the modification of the primary T-cells in accordance with the modification methods described herein. In particular, FIGS. 45A and 45B illustrate the targeting of Exon 3 (guide RNA 13) and Exon 8 (guide RNA 21). The references “#9” and “#10” denote T-cell number and UT control (electroporated without RNP). […]
(§7) Peripheral blood mononuclear cells (PBMC) were isolated from Australian Red Cross Blood donor samples (n=2) via density centrifugation. […] By day 7, the original mixed PBMC population was determined to be primarily CD3+ T cells (flow cytometry; data not shown).

primary human T cells [8] = assay: 6-TG resistance of gRNA modified primary human T cells (viability); format: cell-based; conditions: donors #9 and #10, 1 uM 6-TG, day 8 and day 13, vs unmodified
From the text: FIG. 44 illustrates a method of modifying primary T-cells in accordance with one embodiment of the present disclosure. FIGS. 45A-45C illustrate 6-TG dose responses seven days following the modification of the primary T-cells in accordance with the modification methods described herein. In particular, FIGS. 45A and 45B illustrate the targeting of Exon 3 (guide RNA 13) and Exon 8 (guide RNA 21). The references “#9” and “#10” denote T-cell number and UT control (electroporated without RNP). FIG. 45C illustrates unmodified cells from donor #9 and donor #10 tested with increasing concentrations of 6-TG (day 4). It was observed that the […] primary T-cells were very sensitive to low doses of 6-TG. ICE Scores are shown below.
as §7
The cells were then cultured for about 7 and about 12 days in the presence of 1 uM 6-TG, with 6-TG replenished every about 2 to about 3 days. At each of these time points, the cells were assessed for the proportion of viable cells compared to untreated (UT) controls.

HPRT1 gene [9] = assay: ICE scoring (indel, knockout score) of gRNA editing in CEM cells; format: cell-based, human
From the text: The top candidate guide RNAs from Example 21 were screen in Jurkat cell lines (n=1) and validated in CEM cell lines (n=2). For instance, Jurkat cells were electroporated with a ribonucleoprotein (RNP) complex containing guide RNA (e.g. an RNP including a guide RNA having any one of SEQ ID NOS: 40-49) together with the Cas9 and tracrRNA. The methodology and analysis was the same for both Jurkat cell lines and CEM cell lines (see also, FIG. 37). Following electroporation, cell viability was measured at different concentrations of 6-TG (see FIG. 36).
as §5, §6, §4

[10] = system: CEM T cell leukemia cells; assay: 6-TG selection and 6-TG challenge of gRNA modified CEM cells (cell viability); format: cell-based; conditions: CEM, 10 μM 6-TG for 1 week, vs wild-type
Protocol: as §1, §2

[11] = after 10 days of 6-TG selection (10 uM)

Nc1nc2nc[nH]c2c(=S)[nH]1 [6-TG, 6-thioguanine, reference compound]
viability at 40 µM [1]: ~10%

COc1c(C)c2c(c(O)c1C/C=C(\C)CCC(=O)O)C(=O)OC2 [MPA, Mycophenolic acid]
HPRT knockout population of CEM cells (CEM cells): eliminated at a faster pace
GFP population of transduced (HPRT knockdown) cells (CEM cells; CEM cells): decreased

IDT-4: lead HPRT knockout guide RNA GGTTATGACCTTGATTTATT (listed as DNA, chemistry not given here)
cell viability with increasing doses of 6-TG (Jurkat cells [2]): resistance to increasing doses of 6-TG
HPRT protein level (Western blot) (HPRT protein [3]): undetectable levels of HPRT
sensitivity to MTX compared to wild type cells (Jurkat cells [4]): increased sensitivity to MTX

gRNA 12: sgRNA guide and PAM GCCCCCCTTGAGCACACAGAGGG, HPRT 1 target Exon 4 (listed as DNA, chemistry not given here)
HPRT protein (Western blot) (HPRT protein [5]; 72 hours post-electroporation, no 6-TG selection, listed as guide 12): undetectable levels of HPRT; also recorded: non-detectable
HPRT protein (Western blot) (HPRT protein [5]; [11]): remained undetectable

gRNA 13: sgRNA guide and PAM AGCCCCCCTTGAGCACACAGAGG, HPRT 1 target Exon 3 (listed as DNA, chemistry not given here)
sensitivity to MTX compared to wild-type non-modified cells (UT) (primary human T cells [6]): increased sensitivity to MTX
HPRT protein (Western blot) (HPRT protein [5]; 72 hours post-electroporation, no 6-TG selection, listed as guide 13): undetectable levels of HPRT; also recorded: non-detectable
HPRT protein (Western blot) (HPRT protein [5]; [11]): remained undetectable
knockout efficiency (ICE scoring) (HPRT1 gene [7]): about 43%
proportion of viable cells under 6-TG (primary human T cells [8]): increased viability

gRNA 15: sgRNA guide and PAM GATGTGATGAAGGAGATGGGAGG, HPRT 1 target Exon 3 (listed as DNA, chemistry not given here)
editing (ICE scoring), in words (HPRT1 gene [9]): efficient editing
HPRT protein (Western blot) (HPRT protein [5]; [11]): limited to no detectable levels of HPRT
cell viability under 6-TG selection [10]: more variable viability

gRNA 17: sgRNA guide and PAM GTAGCCCTCTGTGTGCTCAAGGG, HPRT 1 target Exon 3 (listed as DNA, chemistry not given here)
HPRT protein (Western blot) (HPRT protein [5]; 72 hours post-electroporation, no 6-TG selection, listed as guide 17): undetectable levels of HPRT; also recorded: non-detectable
HPRT protein (Western blot) (HPRT protein [5]; [11]): remained undetectable

gRNA 18: sgRNA guide and PAM TTATGCTGAGGATTTGGAAAGGG, HPRT 1 target Exon 2 (listed as DNA, chemistry not given here)
editing (ICE scoring), in words (HPRT1 gene [9]): efficient editing
HPRT protein (Western blot) (HPRT protein [5]; 72 hours post-electroporation, no 6-TG selection, listed as guide 18): reduced compared to wildtype; also recorded: detectable levels of HPRT protein
HPRT protein (Western blot) (HPRT protein [5]; [11]): limited to no detectable levels of HPRT
cell viability under 6-TG selection [10]: more variable viability

gRNA 19: sgRNA guide and PAM GTGCTTTGATGTAATCCAGCAGG, HPRT 1 target Exon 3 (listed as DNA, chemistry not given here)
editing (ICE scoring), in words (HPRT1 gene [9]): zero editing
HPRT protein (Western blot) (HPRT protein [5]; 72 hours post-electroporation, no 6-TG selection, listed as guide 19): reduced compared to wildtype; also recorded: detectable levels of HPRT protein
HPRT protein (Western blot) (HPRT protein [5]; [11]): limited to no detectable levels of HPRT
cell viability under 6-TG selection [10]: more variable viability

gRNA 22: sgRNA guide and PAM GAAGTATTCATTATAGTCAAGGG, HPRT 1 target Exon 8 (listed as DNA, chemistry not given here)
HPRT protein (Western blot) (HPRT protein [5]; 72 hours post-electroporation, no 6-TG selection, listed as guide 22): undetectable levels of HPRT; also recorded: non-detectable
HPRT protein (Western blot) (HPRT protein [5]; [11]): remained undetectable
